Measurements: US9643964B2, “3-(2-aminopyrimidin-4-yl)-5-(3-hydroxypropynyl)-1H-pyrrolo[2,3-C]pyridine derivatives as NIK inhibitors for the treatment of cancer” (Janssen Pharmaceutica NV, priority 2013, dated 2017)

How the values were obtained:
[1] = target: T1, Recombinant Human NF-kappaB-Inducing Kinase (NIK/MAP3K14) (Homo sapiens, UniProt Q99558); assay: Biological Assay A: inhibition of recombinant human NIK/MAP3K14 activity (MBP phosphorylation, Mesoscale); assay type: biochemical; settings: averaged over all measurements on all batches; read-out: Biochemical (MSD MBP) IC50
T1 sequence (Q99558 whole entry): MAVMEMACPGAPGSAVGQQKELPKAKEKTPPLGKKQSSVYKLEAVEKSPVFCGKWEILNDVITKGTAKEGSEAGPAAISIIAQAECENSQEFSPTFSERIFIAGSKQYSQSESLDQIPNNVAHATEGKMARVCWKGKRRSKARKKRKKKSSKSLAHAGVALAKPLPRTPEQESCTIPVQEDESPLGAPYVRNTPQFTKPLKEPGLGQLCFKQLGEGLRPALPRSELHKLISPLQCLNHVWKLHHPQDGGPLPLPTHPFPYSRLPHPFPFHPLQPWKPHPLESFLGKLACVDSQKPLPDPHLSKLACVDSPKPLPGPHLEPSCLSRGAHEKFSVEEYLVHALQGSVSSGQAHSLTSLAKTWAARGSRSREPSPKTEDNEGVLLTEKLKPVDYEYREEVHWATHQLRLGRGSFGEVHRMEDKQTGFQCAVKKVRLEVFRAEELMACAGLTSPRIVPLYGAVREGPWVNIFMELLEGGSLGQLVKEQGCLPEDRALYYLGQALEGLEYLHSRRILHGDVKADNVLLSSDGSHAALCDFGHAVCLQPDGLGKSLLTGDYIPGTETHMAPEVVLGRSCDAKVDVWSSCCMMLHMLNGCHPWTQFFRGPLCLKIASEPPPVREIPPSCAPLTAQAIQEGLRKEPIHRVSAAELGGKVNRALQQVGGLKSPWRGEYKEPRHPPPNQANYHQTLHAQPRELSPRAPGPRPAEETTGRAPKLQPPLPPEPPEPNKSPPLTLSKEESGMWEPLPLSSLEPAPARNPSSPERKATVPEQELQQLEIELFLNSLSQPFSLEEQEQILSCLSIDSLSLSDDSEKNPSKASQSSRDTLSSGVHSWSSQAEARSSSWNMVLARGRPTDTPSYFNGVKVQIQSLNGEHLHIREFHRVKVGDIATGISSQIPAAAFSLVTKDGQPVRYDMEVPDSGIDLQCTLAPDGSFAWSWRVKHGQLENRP
Procedure, shortened: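 10 nM NIK with 25 μM ATP on MBP-coated plates in Tris pH 7.5 buffer with MgCl2, DTT and Na3VO4 and 1% DMSO, for 1 h at 25° C. Phospho-MBP was detected by anti-phospho-MBP and Sulfotag electrochemiluminescence; after blank subtraction, IC50 came from a sigmoidal fit of % inhibition.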

[2] = system: P-IKKα levels in L363 cells; assay: Biological Assay B: effect of compounds on P-IKKα levels in L363 cells; assay type: cell-based; settings: Homo sapiens, L-363, averaged values, read-out: IKKα Cellular IC50
Procedure, shortened: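 L363 cells pre-incubated 24 h with 1 μg/ml stock BAFF, then treated 2 h with compounds (8-point, 1:3 dilutions, 1% DMSO) at 37° C; P-IKKα in lysates measured by sandwich immunoassay. Blank (10 μM ADS125117) subtracted; IC50 from sigmoidal fit of % inhibition of MG132/BAFF control.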

JJN-3 cells = assay: Biological Assay C: antiproliferative activity on JJN-3 cells (CellTiter-Glo); assay type: cell-based, human; settings: Homo sapiens, JJN-3, 72 h, 72 hr treatment; averaged values
Procedure, shortened: (§1)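 CellTiter-Glo luminescence after 72 h exposure, blank (cells read at compound addition) subtracted, growth expressed as % of untreated control; duplicate wells. Suspension cells in RPMI/10% FCS, 2,000–6,000 cells/well, 0.3% DMSO.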

L-363 cells = assay: Biological Assay C: antiproliferative activity on L-363 cells (CellTiter-Glo); assay type: cell-based, human; settings: Homo sapiens, L-363, 72 h, 72 hr treatment; averaged values
Procedure, shortened: as §1

LP-1 cells = assay: Biological Assay C: antiproliferative activity on LP-1 cells (CellTiter-Glo); assay type: cell-based, human; settings: Homo sapiens, LP-1, 72 h, 72 hr treatment; averaged values
Procedure, shortened: as §1

[3] = target: T1, Recombinant Human NF-kappaB-Inducing Kinase (NIK/MAP3K14); assay: Biological Assay A2: inhibition of auto-phosphorylation of recombinant human NIK/MAP3K14 (AlphaScreen); assay type: biochemical; settings: auto-phosphorylation; averaged over all measurements on all batches; read-out: αscreen IC50
Procedure, shortened: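 GST-tagged NIK/MAP3K14 (0.2 nM) auto-phosphorylation with 25 microM ATP in 50 mM Tris pH 7.5, 5 mM MgCl2, 1% DMSO; 1 h at 25° C. Phospho-IKK Ser176/180 detected by AlphaScreen; blank-subtracted % inhibition fitted sigmoidally vs log concentration for IC50.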

Row | SMILES | IC50 [1] | IC50 [2] | EC50 (JJN-3 cells) | EC50 (L-363 cells) | EC50 (LP-1 cells) | IC50 [3]
1 | CC(C)(O)C#Cc1cc2c(-c3nc(N)ncc3F)cn(CC(C)(C)O)c2cn1 [Compound 64] | 5.2 nM | 20 nM | 81 nM | 51 nM | 2000 nM | 29 nM
2 | CC(C)(O)C#Cc1cc2c(-c3ccnc(N)n3)cn(C3COC3)c2cn1 [Compound 65] | 15 nM | 140 nM | 470 nM | 400 nM | 7000 nM | 54 nM
3 | CC(C)(O)C#Cc1cc2c(-c3ccnc(N)n3)cn(C(C)(C)CO)c2cn1 [Compound 66] | 5.8 nM | 240 nM | 250 nM | 270 nM | 7600 nM | 52 nM
4 | CC(C)(O)C#Cc1cc2c(-c3ccnc(N)n3)cn(CCS(C)(=O)=O)c2cn1 [Compound 67] | 57 nM | 880 nM | 2400 nM | 2400 nM | > 10000 nM | 30 nM
5 | CNc1nccc(-c2cn(CC(C)(C)O)c3cnc(C#CC(C)(C)O)cc23)n1 [Compound 68] | 130 nM | 360 nM | 1500 nM | 960 nM | 16000 nM | 47 nM
6 | COCCNC(=O)c1c(-c2ccnc(N)n2)c2cc(C#CC(C)(C)O)ncc2n1C [Compound 69] | 250 nM | 600 nM | 1800 nM | 870 nM | 16000 nM | 89 nM
7 | CN1CC(n2cc(-c3nc(N)ncc3F)c3cc(C#CC(C)(C)O)ncc32)C1 [Compound 70] | 28 nM | 51 nM | 210 nM | 120 nM | 3000 nM | 130 nM
8 | CC(C)(O)Cn1cc(-c2ccnc(N)n2)c2cc(C#CC(C)(O)C(F)(F)F)ncc21 (stereo not drawn) [Compound 111] | 220 nM | 290 nM | 640 nM | 1300 nM | 7500 nM | 190 nM
9 | Cc1cnc(N)nc1-c1c[nH]c2cnc(C#CC(C)(C)O)cc12 [Compound 112] | 6.3 nM | 140 nM | 440 nM | 1300 nM | 14000 nM | 17 nM
10 | CC(C)(O)C#Cc1cc2c(-c3ccnc(N)n3)cn(C3CNC3)c2cn1 [Compound 113] | 52 nM | 660 nM | 1400 nM | 4600 nM | 24000 nM | 38 nM
11 | CC(C)(O)C#Cc1cc2c(-c3ccnc(N)n3)cn(CC3CCNCC3)c2cn1 [Compound 114] | 160 nM | 3800 nM | 1600 nM | 1500 nM | 5500 nM | 190 nM
12 | CC(C)(O)C#Cc1cc2c(-c3ccnc(N)n3)cn(CCN3CC(=O)NC3=O)c2cn1 [Compound 116] | 120 nM | 5300 nM | 5600 nM | 11000 nM | > 10000 nM | 170 nM
13 | CC(C)(O)C#Cc1cc2c(-c3ccnc(N)n3)cn(CCCN3CC(=O)NC3=O)c2cn1 [Compound 117] | 100 nM | 3400 nM | 3300 nM | 9000 nM | > 10000 nM | 14 nM
14 | CC(C)n1cc(-c2nc(N)ncc2CCCN)c2cc(C#CC(C)(C)O)ncc21 [Compound 118] | 240 nM | 1700 nM | 330 nM | 1600 nM | 3800 nM | 740 nM
